# Measurements: US20210244791A1, “APPLICATION OF PEDF-DERIVED SHORT PEPTIDES IN TENDON HEALING” (BRIM Biotechnology, Inc., priority 2018, published 2021)
# Experiments:
# [1] = system: cultured tendon stem/progenitor cells (TSPC); details: peptide added in culture medium; previous study; cited from earlier work
# tendon rupture = details: rat model; previous study; cited from earlier work
# injured Achilles tendon = assay: Rat model of Achilles tendon injury, histology (H&E) and histopathological score; type: in vivo; details: 1 week postoperative
# Excerpt: Representative micrographs of the histopathological analysis by H&E staining. H&E-stained sections in higher magnification show uninjured tendon tissue with a relative scarcity of cells among the collagen fibers.
# (A) Representative H&E-stained longitudinal sections in higher magnification show the nuclei morphologies in uninjured tendon tissue and injured tendon treated with vehicle/alginate and 29-mer/alginate for 1 week. (B) Histopathological scores. Total scores were determining by fiber structure, fiber arrangement, rounding of the nuclei, resident cell density and inflammation (infiltration of inflammatory cells, neovascularization and fatty deposits). Data are reported as mean±SE. *P<0.0005 versus vehicle/alginate-treated tendon; ^#P<0.05 versus 29-mer/alginate-treated tendon.
# (§1) To investigate the effects of the 29-mer peptide on tendon healing, a rat model of Achilles tendon injury was established as reported by Orhan et al. (The effect of extracorporeal shock waves on a rat model of injury to tendon Achilles. A histological and biomechanical study. J. Bone Joint Surg. Br. 2004;.86(4):.613-618). Adult 10-week-old male Sprague-Dawley rats (initial body weight=312±11 g) were anesthetized by an intraperitoneal injection of xylazine (10 mg/kg). Then, the left tendo Achilles injury was created by full-thickness insertion of an 18-G needle through tendo Achilles 1 cm proximal to the calcaneum attachment site. This created a horizontal wound that was flanked by intact tendon tissue to prevent the retraction of severed ends. The skin incision was closed after the wound was irrigated with sterile saline. Treatments were applied to area around the tendon lesion by subcutaneous injection with 150 μl of alginate gel mixed with 100 μM 29-mer or DMSO vehicle (six rats per experimental condition).
# The tendon and surrounding soft tissue were dissected. Specimens were fixed in a 4% paraformaldehyde (PFA) solution and then were embedded in paraffin blocks. Sections (5 μm in thickness) were longitudinally cut and stained with hematoxylin and eosin (H&E) or used for immunohistochemical examination. 36 sections per tendon were carefully prepared so as to include the most severely degenerated area. Images were captured using a Nikon Eclipse 80i microscope (Nikon Corporation, Tokyo, Japan) equipped with a Leica DC 500 camera (Leica Microsystems, Wetzlar, Germany). Four sections of each sample containing injured tendon tissues were selected and evaluated by two blinded observers to assess the tendon morphology according to a modified semi-quantitative grading score from 0 to 3 proposed by Chen et al. (Tendon derived stem cells promote platelet-rich plasma healing in collagenase-induced rat Achilles tendinopathy. Cell Physiol. Biochem., 2014; 34(6): 2153-68). The scores analyzed the fiber structure (0-3), fiber arrangement (0-3), rounding of the nuclei (0-3), resident cell density (0-3), and inflammation (0-3; infiltration of inflammatory cells, neovascularization and fatty deposits). According to this grading system, a perfectly normal tendon obtained a score of 0, whereas a score of 15 was assigned to maximally abnormal tendons.
# To investigate the therapeutic effect of the 29-mer peptide on injured tendon, a rat model of Achilles tendon injury was established by full-thickness insertion of an 18-G needle through the tendon Achilles. We delivered the 29-mer in a 150 μl alginate gel, which releases 90% loaded 29-mer in 5 days as described in a previous protocol (Ho et al., PEDF-derived peptide promotes skeletal muscle regeneration through its mitogenic effect on muscle progenitor cells. Am J Physiol. Cell Physiol. 2015 Aug. 1; 309(3): C159-68).
# CD146-positive TSPC = assay: CD146 immunostaining of TSPC in injured Achilles tendon; type: in vivo, rat; details: 1 week after wounding; peptide/alginate gel; vehicle/alginate 38.3±7.8
# Experimental: (A) Representative CD146-stained longitudinal sections. (Original magnification×200). (B) The number of CD146-positive TSPC per 200×field of view on injured tendon sections. Data are reported as mean±SE. Total CD146^+ cells were evaluated from 6 sections/tendon specimen, with 3 rats in each group. *P<0.001 versus vehicle/alginate-treated tendon; #p <0.001 versus 29-mer/alginate-treated tendon.
# as §1, with “The skin incision was closed after the wound was irrigated with sterile saline. Treatments were applied to area around the tendon lesion by subcutaneous injection with 150 μl of alginate gel mixed with 100 μM 29-mer or DMSO vehicle (six rats per experimental condition).” left out
# CD146 is one of the TSPC markers. […] To test the mechanism of the 29-mer-induced tendon repair, CD146 immunostaining of TSPC located at injured tendon was measured, at 1 week after wounding. […]
sequence,measurement,setting,value
"SLGAEQRTESIIHRALYYDLISSPDIHGT (listed as Homo sapiens) [29-mer, PEDF-derived short peptide, human PEDF residues 93-121]",induction of cultured TSPC proliferation,[1],able to induce cultured tendon stem/progenitor cells (TSPC) proliferation
same,healing of tendon rupture,tendon rupture,facilitated healing of tendon rupture
same,total histopathological score,"injured Achilles tendon; peptide/alginate gel, 0 = normal tendon, 15 = maximally abnormal, vehicle/alginate 12.7±0.6",7.9±0.4
same,histological appearance of treated tendon (H&E staining),injured Achilles tendon; subcutaneous 150 μl alginate gel with 100 μM peptide,uniform appearance of well-aligned collagen fibers
same,number of CD146-positive TSPC on injured tendon sections,CD146-positive TSPC,86.8±6.0 cells per 200× field
